Structures are written as SMILES.

For series [1] the following is noted: dasatinib in crystalline forms; cited from earlier work.
The nature of series [2]: Amorphicity / crystallinity by XRD. The format is physicochemical. The following applies: Comparative Example; promptly after spray drying and secondary drying. The method, then: The percent of crystallinity was calculated as follows: % crystallinity=area of crystalline peaks/(area of crystalline peaks+amorphous peaks)
Amorphicity and glass transition temperature were assessed using the methodology described in Example 1.

The nature of series [3]: Water content by coulometric Karl Fischer titration. The format is physicochemical. The note with it: Comparative Example; promptly after preparation.
The nature of series [4]: Assay and total impurities by HPLC (Example 6). The series is classed as physicochemical. The following applies: Comparative Example; promptly after preparation.
Procedure: Assay and total impurities of the ASDs were assessed using either an Agilent 1200 HPLC or a Waters Alliance e2695 HPLC.
L100-55 ASDs and in Table 37 for Dasatinib:METHOCEL E5 ASDs at t=0 and at each stability time point. These reported assay values are corrected for the measured water content of the sample.
Series [5] is described as follows: Glass transition temperature by mDSC. The following applies: Comparative Example; promptly after preparation.

With `Cc1nc(Nc2ncc(C(=O)Nc3c(C)cccc3Cl)s2)cc(N2CCN(CCO)CC2)n1` [dasatinib, N-(2-chloro-6-methylphenyl)-2-[[6-[4-(2-hydroxyethyl)-1-piperazinyl]-2-methyl-4-pyrimidinyl]amino]-5-thiazolecarboxamide], the “Biopharmaceutical Classification System (BCS) class” value in series [1] is “Class II”.
With `Cc1nc(Nc2ncc(C(=O)Nc3c(C)cccc3Cl)s2)cc(N2CCN(CCO)CC2)n1` [spray-dried material of 100% dasatinib], the XRD character entry in series [2] is listed as “exhibited crystalline character”. The compound also showed a Water content in series [3] of 0.81%. The same compound came in with an assay value in series [4] of 97.4%. The “glass transition temperature (Tg), transition event” value in series [5] came to 125.61 °C.

(Values after patent US11413290B2, “Amorphous solid dispersions of dasatinib and uses thereof” (NANOCOPOEIA, LLC, priority 2020, dated 2022).)
